{"source": "patent US20120171123A1", "about": "“USES AND COMPOSITIONS FOR TREATMENT OF RHEUMATOID ARTHRITIS” (priority 2006, published 2012)", "test_system": "patients with active rheumatoid arthritis", "test": "Study A: HAQ physical function", "format": "in vivo, human", "source_text": "Efficacy of a treatment for rheumatoid arthritis can be determined by using the health assessment questionnaire (HAQ). Health Assessment Questionaire (HAQ) is a standardized disability questionnaire that was initially developed for use in rheumatoid arthritis (RA). […] The HAQ is a validated questionnaire designed to assess patients' ability to perform activities of daily living, particularly in adult arthritics. The instrument consists of the HAQ Disability Index (20 items), Pain Scale (1 item), and Global Health Status (1 item) that measure disability/physical functioning and quality of life (see Fries (1982) et al. J Rheumatol 9:789).\nImprovements in physical function were determined using the HAQ score.\nTo evaluate the impact of prior biological therapies, patients with moderate to severe RA enrolled at 450 sites in 11 European countries plus Australia (Study A). Patients with moderate to severe RA and an inadequate response to prior DMARD therapies were enrolled in a 12-week open-label study with an optional extension phase. […] Efficacy parameters included ACR20, ACR50, ACR70, EULAR Response, HAQ, tender and swollen joint count (TJC28/SJC28), and DAS28.\nPatients with long-standing, moderate to severe RA were enrolled in Study A at 450 sites in 12 different countries. The study design for Study A is outlined in FIG. 21. […] Previous treatment with other biologics was allowed up to 8 weeks before enrollment. Patients met the following inclusion criteria: Age ≧18 years; RA (defined by American College of Rheumatology criteria) for ≧3 months; active, moderate to severe RA (Disease Activity Score (DAS28)≧3.2); unsatisfactory response or intolerance to at least one prior DMARD, including biologics. Efficacy assessments were performed at weeks 0 (baseline), 2, 6, and 12. The key outcomes measured were: change in DAS28; EULAR responses; ACR20, ACR50, ACR70 responses; changes in Tender Joint Count (TJC) and Swollen Joint Count (SJC); and change in Health Assessment Questionnaire (HAQ).\nModerately to severely active RA was defined by Disease Activity Score 28 (DAS28)≧3.2 at baseline. Unsatisfactory response or intolerance to at least one prior DMARD was required for enrollment in Study A. A 12-week study period was followed by an optional extension phase with efficacy and routine safety evaluations performed at Weeks 2, 6, 12, 20, and every 8 weeks thereafter. […] Key efficacy parameters include ACR20, 50, and 70 responses; EULAR responses; and changes in DAS28, Tender Joint Count (TJC), Swollen Joint Count (SJC), C-Reactive Protein (CRP), and Health Assessment Questionnaire Disability Index (HAQ). […] Adverse events (AE) were collected throughout the entire treatment period, also beyond Week 52.", "key": {"[1]": {"settings": "12 weeks, all pts in Study A (n=4241)"}, "[2]": {"settings": "12 weeks, prior biologic: Any (n=688)"}, "[3]": {"settings": "12 weeks, prior biologic: ETA (n=114)"}, "[4]": {"settings": "12 weeks, prior biologic: ETA + INF (n=78)"}, "[5]": {"settings": "12 weeks, prior biologic: INF (n=358)"}, "[6]": {"settings": "12 weeks, prior biologic: None (n=3553)"}}, "data": [{"substance": "adalimumab: human anti-TNF mAb (HUMIRA, Abbott Laboratories), described in U.S. Pat. No. 6,090,382 as D2E7", "values": [{"measurement": "improvement in HAQ score", "setting": "12 weeks, N=2008 analysis", "value": "−0.49"}, {"measurement": "patients achieving HAQ<0.5", "setting": "12 weeks, N=2008 analysis", "value": 25, "unit": "%"}, {"measurement": "Change in HAQ, mean change from baseline", "setting": "[1]", "value": "−0.49"}, {"measurement": "HAQ < 0.5", "setting": "[1]", "value": 24, "unit": "%"}, {"measurement": "Change in HAQ, mean change from baseline", "setting": "[2]", "value": "−0.43"}, {"measurement": "HAQ < 0.5", "setting": "[2]", "value": 13, "unit": "%"}, {"measurement": "Change in HAQ, mean change from baseline", "setting": "[3]", "value": "−0.36"}, {"measurement": "HAQ < 0.5", "setting": "[3]", "value": 9, "unit": "%"}, {"measurement": "Change in HAQ, mean change from baseline", "setting": "[4]", "value": "−0.35"}, {"measurement": "HAQ < 0.5", "setting": "[4]", "value": 13, "unit": "%"}, {"measurement": "Change in HAQ, mean change from baseline", "setting": "[5]", "value": "−0.49"}, {"measurement": "HAQ < 0.5", "setting": "[5]", "value": 14, "unit": "%"}, {"measurement": "Change in HAQ, mean change from baseline", "setting": "[6]", "value": "−0.5"}, {"measurement": "HAQ < 0.5", "setting": "[6]", "value": 26, "unit": "%"}, {"measurement": "Change in HAQ, mean change from baseline", "setting": "Week 12, concomitant LEF only (n=557)", "value": "−0.47"}, {"measurement": "Change in HAQ, mean change from baseline", "setting": "Week 12, concomitant MTX + LEF (n=123)", "value": "−0.53"}, {"measurement": "Change in HAQ, mean change from baseline", "setting": "Week 12, concomitant MTX + SSZ", "value": "−0.53"}, {"measurement": "Change in HAQ, mean change from baseline", "setting": "Week 12, concomitant MTX only (n=1561)", "value": "−0.52"}, {"measurement": "Change in HAQ, mean change from baseline", "setting": "Week 12, concomitant QC/HQC (n=85)", "value": "−0.63"}, {"measurement": "Change in HAQ, mean change from baseline", "setting": "Week 12, concomitant SSZ only (n=89)", "value": "−0.47"}, {"measurement": "Change in HAQ, mean change from baseline", "setting": "Wk 12, concomitant MTX Im 15 mg (N=76), no other DMARD", "value": "−0.55"}, {"measurement": "Change in HAQ, mean change from baseline", "setting": "Wk 12, concomitant MTX Iv 15 mg (N=23), no other DMARD", "value": "−0.54"}, {"measurement": "Change in HAQ, mean change from baseline", "setting": "Wk 12, concomitant MTX Sc 15 mg (N=37), no other DMARD", "value": "−0.53"}, {"measurement": "Change in HAQ, mean change from baseline", "setting": "Wk 12, concomitant MTX oral 15 mg (N=405), no other DMARD", "value": "−0.50"}, {"measurement": "Change in HAQ, mean change from baseline", "setting": "Wk 12, concomitant MTX oral ≦7.5 (N=127), no other DMARD", "value": "−0.56"}, {"measurement": "Change in HAQ, mean change from baseline", "setting": "Wk 12, concomitant MTX oral ≧20 mg (N=216), no other DMARD", "value": "−0.52"}, {"measurement": "mean change in HAQ score from baseline", "setting": "week 2", "value": "−0.32"}, {"measurement": "mean change in HAQ score from baseline", "setting": "week 6", "value": "−0.44"}, {"measurement": "mean change in HAQ score from baseline", "setting": "week 12", "value": "−0.51"}, {"measurement": "patients achieving HAQ<0.5", "setting": "week 12", "value": 5, "unit": "%"}, {"measurement": "patients with a change in HAQ≧−0.22 (MCID)", "setting": "week 12", "value": 70, "unit": "%"}, {"measurement": "change in HAQ", "setting": "week 12 (n=6235)", "value": "−0.52"}, {"measurement": "patients achieving HAQ<0.5", "setting": "week 12, listed as Adalimumab", "value": 25, "unit": "%"}, {"measurement": "change in HAQ", "setting": "week 28 (n=4119)", "value": "−0.56"}, {"measurement": "change in HAQ", "setting": "week 52 (n=1251)", "value": "−0.57"}]}]}
